Source: patent EP3666770A1, “NOVEL HETEROCYCLIC COMPOUNDS AS CDK8/19 INHIBITORS” (Joint Stock Company "Biocad", priority 2017, dated 2019)
Where two headings read alike, the source gives them in different places.

Assays:
[1] = Chemical stability in human blood plasma; assay type: in vitro ADME; settings: pooled human blood plasma; 10 µM; 4 hours at 37°C; substance amount in % after thermostatting
Experimental: (§1) Chemical stability of the compounds described herein was determined in simulated gastric fluid and human blood plasma.
(§2) Determination of stability in human blood plasma was performed using pooled human blood plasma taken from ten healthy donors. The initial candidate solution (10 mM in DMSO) was diluted with pooled blood plasma to a concentration of […] (test solution). The test solution was incubated in a dry block thermostat for 4 hours at 37°C. HPLC with Agilent 1200 liquid chromatography system (Agilent, USA) was employed to determine peak areas of the compounds in test samples, said peak areas corresponding to the initial test time (prior to incubation) and the final test time (after incubation in a dry block thermostat for 4 hours at 37°C), proteins were preliminarily precipitated with acetonitrile. Chromatographic analysis was performed in a gradient elution regime with a flow rate of 1 mL/min. Substance amount in % in a sample after thermostatting was determined.

[2] = General cytotoxicity test on HepG2 cells; assay type: cell-based; settings: human, 72 h incubation, 200 to 0.78 µM, average values of several tests, read-out: Hep-G2 CC50, mkM
Experimental: Cell viability was assessed using the above method. Table 6. […] The results are presented as average values of activity obtained in several tests.

[3] = Chemical stability in simulated gastric fluid (SGF); assay type: physicochemical; settings: SGF without enzymes, pH=1,4; 10 µm; 2 hours at 37°C; substance amount in % after thermostatting
Experimental: as §1
as §2, with “SGF concentrate without enzymes, pH=1,4 (Sigma Ireland, cat#01651)” for “Determination of stability in human blood plasma”, “used as simulated gastric fluid. Initial” for “performed using pooled human blood plasma taken from ten healthy donors. The initial”, “an SGF working solution” for “pooled blood plasma”, “2” for “4”, “37°C).” for “37°C), proteins were preliminarily precipitated with acetonitrile.”

HL-60 = assay: Cell-based antiproliferative test (AlamarBlue), HL-60; settings: Homo sapiens, HL-60, 120 h, 120 h incubation; average values of several tests; read-out: HL-60 IC50, mkM
Experimental: (§3) Antiproliferative activity of CDK8 inhibitors according to the present invention was measured in a cell-based test on continuous cell cultures MV4-11 (biphenotypic myelomonocytic leukemia, ATCC® CRL-9591™), KG-1 (acute myeloid leukemia, ATCC® CCL-246™), HL-60 (acute promyelocytic leukemia, ATCC® CCL-240™) using a vital stain AlamarBlue (ThermoFisher, #DAL1100). The cells were grown in RPMI-1640 (PanEco, #C330p) medium with addition of 10% FBS (Gibco, #16140-071); washed and resuspended in culture medium with 10% FBS (Gibco, #16140-071) in 96-well culture plates (Corning, #3599) with ≈ 10 ×10^3 cells in […] of medium per well. The compounds in question were dissolved in DMSO and diluted with a medium with 10% FBS (Gibco, #16140-071) to a final concentration ranging form 0 to 100 µM. […] of diluted compounds were then added to each well (final DMSO concentration was less than 1%) and incubated under 5% CO2 atmosphere at 37°C for 120 h. After incubating, 15 µL of AlamarBlue (ThermoFisher, #DAL1100) reagent was added per well, contents of plates were mixed in an orbital shaker (Biosan, Latvia) and further incubated for 3-5 h at 37°C under 5% CO2 atmosphere. Number of living cells was estimated using a microplate spectrophotometer (Tecan Infinite M200Pro, Switzerland) measuring fluorescent signal at the excitation wavelength (λEx) of 540 nm and emission wavelength (λEm) of 590 nm.
(§4) IC50 was calculated using Magellan 7.2 software (Tecan, Switzerland) approximating experimental points by four-parameter logistic model with the optimization by Levenberg-Marquardt (table 7, table 7).

MV4-11 = assay: Cell-based antiproliferative test (AlamarBlue), MV4-11; settings: Homo sapiens, MV4-11, 120 h, 120 h incubation; average values of several tests; read-out: MV-4-11 IC50, mkM
Experimental: as §3, §4

KG-1 = assay: Cell-based antiproliferative test (AlamarBlue), KG-1; settings: Homo sapiens, KG-1; 120 h incubation; average values of several tests; read-out: KG-1 IC50, mkM
Experimental: as §3, §4

[4] = Enzyme stability in human liver microsomes; assay type: in vitro ADME; settings: pH 7.4; 0,5 mg/mL pooled human liver microsomes; 10 µM compound; 37°C; pH=7,4
Experimental: Measuring of candidates' enzyme stability enabled estimation of the stability of the present compounds towards the action of enzymes in liver microsomes.
Enzyme degradation rate was measured by incubating the reaction mixture in a dry block thermostat at 37°C, said reaction mixture comprising 0,5 mg/mL of pooled human liver microsomes (XenoTech, USA, cat#H2620), 10 µM compound, 2 mM β-nicotinamide adenine dinucleotide (Carbosynth, UK, cat#NN10871) and 4 mM magnesium chloride in 0,1 M sodium-phosphate buffer, pH=7,4. The reaction was quenched with acetonitrile (100 µL of acetonitrile / 100 µL of the reaction mixture). After quenching, the samples were centrifuged at 10000 rpm for 10 minutes. Supernatant fluid was tested by chromatographic technique using Agilent1200 (Agilent, USA). Chromatographic analysis was performed in a gradient elution regime with a flow rate of 1 mL/min. A graph of the logarithm of substance's peak area as a function of time was made. The dependent factor of the line corresponded to the elimination rate constant K based on which the drug's half-life t1/2 and degradation rate CLint were calculated: Elimination rate constant (k) = (−gradient) [formula] [formula] V(μL/mg) = (volume of incubation(μL))/(protein in the incubation(mg)) [formula] [formula]

[5] = Permeability through Caco-2 cell monolayer; assay type: in vitro ADME; settings: human, Caco-2; for Papp A→B at 2 h, 10 µM: A->B transfer, pH 6.5 -> pH 7.4, 2 hours at 37 °C; for efflux ratio at 2 h, 10 µM: efflux = Papp B-A / Papp A-B
Experimental: Estimation of permeability through Caco-2 cell monolayer enables assessment of the ability of the substances to penetrate through biological membranes by means of both active and passive transport.
Intestinal epithelial cells Caco-2 were grown on filter inserts (pore size 0.4 µm, BD Falcon with High Density) for 21 days; monolayer integrity was then checked using Lucifer Yellow (Sigma-Aldrich, USA) according to the standard protocol. In A->B transfer ("intestinal lumen" - "blood stream" transfer), solutions of the test substances in buffer, pH 6.5 (HBSS, 10 mM HEPES, 15 mM glucose) at a concentration of 10 µM were added to the upper chamber; whereas the lower chamber was filled with buffer, pH 7.4 (HBSS, 10 mM HEPES, 15 mM Glucose, 1% BSA). In B->A transfer ("blood stream" - "intestinal lumen" transfer), the upper chamber was filled with buffer, pH 6.5, whereas the solutions of the test substances in buffer, pH 7.4, at a concentration of 10 µM were added to the lower chamber. A highly permeable substance propranolol was used as a control.
After 2 hours incubation at 37 ° C under an atmosphere containing 5% CO2, the amounts of the test substances in the upper and lower chambers were measured by HPLC using an Agilent1200 HPLC system (Agilent, USA), proteins were preliminarily precipitated with acetonitrile. Chromatographic analysis was performed in a gradient elution regime with a flow rate of 1 mL/min. The peak areas corresponding to the compounds were detected on chromatograms.
The value was calculated using the formula: efflux = Papp B−A /Papp A−B , [formula] where • Papp A-E - the value of permeability direct analysis A→ B; • Papp B-A - the value of the permeability of the reverse analysis B→ A.

Row | SMILES | Stability in blood plasma, % [1] [%] | CC50 at 72 h ([2]; HepG2 cells) [µM] | Stability in SGF, % [3] [%] | IC50 (HL-60) [µM] | IC50 (MV4-11) [µM] | IC50 (KG-1) [µM] | microsomal CLint at 10 µM [4] [µL/min/mg] | Papp A→B at 2 h, 10 µM [5] [×10⁻⁶ cm/s] | efflux ratio at 2 h, 10 µM [5] | CC50 at 72 h [2] [µM]
1 | O=C(c1ccc2ncn(-c3ccc(-c4cn[nH]c4)cc3)c2c1)N1CCC1 [CDK8-1-5, (1-(4-(1H-Pyrazol-4-yl)phenyl)-1H-benzo[d]imidazol-6-yl)(azetidin-1-yl) methanone] | 98.1 | 81.1 | 99.5 | > 60 | 1.24 | 4.71 | – | – | – | –
2 | NC(=O)c1ccc(-n2cnc3ccc(N4CC(C(=O)Nc5ccccc5)C4)cc32)cc1 [CDK8-1-6, 1-(1-(4-Carbamoylphenyl)-1H-benzo[d]imidazol-6-yl)-N-phenylazetidine-3-carboxamide] | 100 | > 100 | 98.9 | 8.18 | 1.64 | > 10 | 23.4 | – | – | –
3 | Cn1cc(-c2ccc(-n3cnc4ccc(C(=O)N5CCC5)cc43)cc2)cn1 [CDK8-1-18, Azetidin-1-yl(1-(4-(1-methyl-1H-pyrazol-4-yl)phenyl)-1H-benzo[d]imidazol-6-yl) methanone] | 100 | > 100 | 100 | > 100 | 4.8 | 2.13 | 14.6 | – | – | –
4 | COC1CN(C(=O)c2cnc3cncc(-c4ccc(-c5cnn(C)c5)cc4)c3c2)C1 [CDK8-3-15, (3-Methoxyazetidin-1-yl)(5-(4-(1-methyl-1H-pyrazol-4-yl)phenyl)-1,7-naphthyridin-3-yl) methanone] | 75.1 | > 100 | 99.3 | > 60 | 2.45 | 1.13 | 15.2 | – | – | –
5 | Cn1cc(-c2ccc(-c3cncc4ncc(C(=O)N5CCCC5)cc34)cc2)cn1 [CDK8-3-16, (5-(4-(1-Methyl-1H-pyrazol-4-yl)phenyl)-1,7-naphthyridin-3 - yl)(pyrrolidin-1-yl) methanone] | 100 | > 100 | 100 | > 60 | 2.87 | 0.94 | 27.8 | – | – | –
6 | COc1cc(-c2cnc3[nH]cc(C(=O)c4ccncc4)c3c2)ccc1N1CCOCC1 [CDK8-4-31, (5-(3-Methoxy-4-morpholinophenyl)-1H-pyrrolo[2,3-b]pyridin-3-yl) (pyridin-4-yl) methanone] | – | – | 99.9 | – | 0.61 | 21.7 | – | 36.1 | 0.35 | > 100
7 | O=C(c1cccnc1)c1c[nH]c2ncc(-c3ccc(N4CCOCC4)cc3)cc12 [CDK8-4-37, (5-(4-Morpholinophenyl)-1H-pyrrolo[2,3-b]pyridin-3-yl) (pyridin-3-yl)methanone] | 100 | 118 | 100 | – | 0.13 | 5 | – | 8.63 | 1.08 | –
8 | O=C(c1ccncc1)c1c[nH]c2ncc(-c3ccc(N4CCOCC4)cc3)cc12 [CDK8-4-38, (5-(4-Morpholinophenyl)-1H-pyrrolo[2,3-b]pyridin-3-yl) (pyridin-4-yl)methanone] | 100 | > 100 | 100 | – | 0.39 | 60 | 20 | 13.9 | 0.28 | –
9 | CN(C)c1ccc(-c2cnc3[nH]cc(C(=O)c4cccnc4)c3c2)cc1 [CDK8-4-39, (5-(4-(Dimethylamino)phenyl)-1H-pyrrolo[2,3-b]pyridin-3-yl) (pyridin-3-yl)methanone] | 100 | > 100 | 100 | – | 0.19 | 27.7 | 23.6 | – | – | –
10 | CN(C)c1ccc(-c2cnc3[nH]cc(C(=O)c4ccncc4)c3c2)cc1 [CDK8-4-40, (5-(4-(Dimethylamino)phenyl)-1H-pyrrolo[2,3-b]pyridin-3-yl) (pyridin-4-yl) methanone] | 100 | > 100 | 100 | – | 5.56 | 25 | 35 | – | – | –
11 | Cn1cc(-c2ccc(-c3ccc4nccc(C(=O)N5CCCCC5)c4c3)cc2)cn1 [CDK8-5-8, (6-(4-(1-Methyl-1H-pyrazol-4-yl)phenyl)quinolin-4-yl) (piperidin-1-yl)methanone] | 98.2 | > 50 | 100 | 24.8 | 3.73 | 17.5 | – | – | – | –
